US20240124486A1, “MACROCYCLIC TLR7 AGONIST, PREPARATION METHOD THEREFOR, PHARMACEUTICAL COMPOSITION AND USE THEREOF” (SHANGHAI VISONPHARMA CO., LTD., priority 2020, published 2024)

Assays:
[1] = target: T1, human TLR7 (Homo sapiens, UniProt Q9NYK1); assay: Agonistic activity on human TLR7 in HEK-Blue hTLR7 cell line (QUANTI-Blue reporter); format: cell-based; conditions: HEK-Blue hTLR7 cells, 16-22 h incubation, absorption at 630 nm; read-out: EC50 value of the agonistic effect on human TLR7
T1 construct: host or cells: HEK-Blue hTLR7 (HEK293-derived reporter cells)
T1 sequence (Q9NYK1 27-1049): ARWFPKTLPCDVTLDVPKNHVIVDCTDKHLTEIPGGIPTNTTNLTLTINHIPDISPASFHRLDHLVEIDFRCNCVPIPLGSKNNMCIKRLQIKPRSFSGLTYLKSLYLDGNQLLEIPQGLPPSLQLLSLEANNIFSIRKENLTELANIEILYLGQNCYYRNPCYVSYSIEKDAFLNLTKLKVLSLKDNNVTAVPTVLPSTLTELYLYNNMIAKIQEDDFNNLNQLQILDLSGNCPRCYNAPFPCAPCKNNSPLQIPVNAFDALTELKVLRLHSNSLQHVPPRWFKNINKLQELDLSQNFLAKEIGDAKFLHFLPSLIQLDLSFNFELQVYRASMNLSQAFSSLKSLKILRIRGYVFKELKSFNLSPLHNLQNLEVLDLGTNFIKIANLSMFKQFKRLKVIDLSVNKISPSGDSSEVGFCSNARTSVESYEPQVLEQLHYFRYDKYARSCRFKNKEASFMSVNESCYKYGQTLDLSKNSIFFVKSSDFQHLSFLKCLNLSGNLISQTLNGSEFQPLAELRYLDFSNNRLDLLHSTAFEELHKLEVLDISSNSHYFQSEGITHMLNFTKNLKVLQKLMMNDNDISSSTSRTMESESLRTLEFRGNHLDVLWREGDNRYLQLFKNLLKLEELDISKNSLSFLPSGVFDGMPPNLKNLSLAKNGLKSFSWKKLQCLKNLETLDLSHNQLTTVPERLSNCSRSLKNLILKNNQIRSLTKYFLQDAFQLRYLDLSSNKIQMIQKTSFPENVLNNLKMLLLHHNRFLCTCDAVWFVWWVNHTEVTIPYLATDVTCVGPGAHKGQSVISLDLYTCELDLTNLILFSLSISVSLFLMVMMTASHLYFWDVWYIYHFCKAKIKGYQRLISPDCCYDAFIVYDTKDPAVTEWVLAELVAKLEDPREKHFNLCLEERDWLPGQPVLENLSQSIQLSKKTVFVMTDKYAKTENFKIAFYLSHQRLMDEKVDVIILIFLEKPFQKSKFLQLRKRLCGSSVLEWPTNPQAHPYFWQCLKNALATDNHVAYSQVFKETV
Method: The TLR7 agonistic activity of the compounds of the invention in HEK-Blue™ hTLR7 cell line with stable expression of human TLR7 were assayed using the following method: • 1. Weighed the test compounds and prepared stock solutions with DMSO (Sigma) at a concentration of 10 mM. […] The highest concentration was 1 mM. • 2. The test compounds and DMSO control were diluted 10-fold in DPBS buffer (Gibco) and then added to a 96-well cell culture plate (Corning) at a volume of 20 μL/well. • 3. HEK-Blue™ hTLR7 cells (Invivogen) were digested with cell separation solution (Gibco), and counted (TC-20 cell counter, Bio-rad). Cells were diluted to 4.4E5/ml using DMEM cell medium (Gibco). Added the cells to a 96-well cell culture plate at a volume of 180 μL/well. The cells were incubated for 16-22 h at 37° C. in a 5% CO2 incubator. • 4. Prepared QUANTI-Blue detection reagent (Invivogen), and added into a new 96-well plate at a volume of 180 μL/well. Twenty μL of cell culture supernatant was transferred from the cell culture plate and added to the 96-well plate and incubated at 37° C. for 1-3 hours. • 5. Neo2 multifunctional microplate reader (Bio-Tek) was used to measure the optical absorption at 630 nm, and the EC50 was calculated by GraphPad Prism.
The agonistic effect of the compounds of the invention on human TLR7 can be determined by the above experiments, and the measured EC50 value is shown in Table 1.

[2] = tested on: human peripheral blood mononuclear cells; assay: IFN-α production by human peripheral blood mononuclear cells stimulated by compounds (ELISA); format: cell-based; conditions: human PBMC, about 8 hours, supernatant ELISA
Method: • 1. The frozen human peripheral blood mononuclear cells (Miaotong Biotechnology Co., LTD., PB010C) were dissolved in water bath at 37° C. After counting, the cells were diluted to 0.2M/mL, and 150 uL/well was added to the 96-well cell culture plate, and the cells were incubated for 40 hours. • 2. The test compounds were weighed and prepared with DMSO at a concentration of 10 mM. DMSO was used to dilute the test compounds by a 10-fold gradient, with a total of four concentration gradients. The highest concentration was 400 μM. • 3. The test compounds, DMSO control and positive controls were diluted 100 times with cell culture medium (RPMI 1640 cell medium, Gibco), and 50 μL was added to 96-well cell culture plates. • 4. The cells were incubated at 37° C. for about 8 hours, and the supernatant was collected by centrifugation. The level of IFN-α in the supernatant was determined by ELISA (IFN-α ELISA kit, Dakewe). • 5. Light absorption at 450 nm was measured by microplate reader, and IFN-α level in culture supernatant was quantified according to the standard curve.

Row | EC50 [1] [nM] | Compound | IFN-α concentration post stimulation ([2]; compound 0.1 nM) [pg/mL] | IFN-α concentration post stimulation ([2]; compound 1 nM) [pg/mL] | IFN-α concentration post stimulation ([2]; compound 10 nM) [pg/mL]
1 | 41 | Nc1nc2nc3c1[nH]c(=O)n3Cc1ccc(O)c(c1)C/C=C/CCO2 [Reference 3, reference compound] | 8 | 9 | 284
2 | 14 | Nc1nc2nc3c1[nH]c(=O)n3Cc1cc3c(c(c1)OCCCCO2)CCN(C1CCC1)C3 [Compound I-60] | 12 | 2412 | 3127
3 | 15 | Nc1nc2nc3c1[nH]c(=O)n3Cc1ccc(OC3CCNCC3)c(c1)C/C=C/CCO2 [Reference 1, reference compound] | 9 | 74 | 159
4 | 2 | CC(C)N1CCc2cc3cc(c2C1)CCCCCOc1nc(N)c2[nH]c(=O)n(c2n1)C3 [Compound I-50] | 1509 | 2615 | 2173
5 | 6 | Nc1nc2nc3c1[nH]c(=O)n3Cc1cc(c3c(c1)CCN(C1CCC1)C3)CCCCCO2 [Compound I-51] | 530 | 2759 | 2472
6 | 11 | COCCN1CCc2c3cc(cc2C1)Cn1c(=O)[nH]c2c(N)nc(nc21)OCCCCC3 [Compound I-48] | 13 | 2431 | 2784
7 | 105 | CC(C)(C(=O)O)N1CCc2c3cc(cc2C1)Cn1c(=O)[nH]c2c(N)nc(nc21)OCCCCC3 [Compound I-26] | 12 | 11 | 96
8 | – | CCCCOc1nc(N)c2c(n1)N(Cc1cccc(CN3CCCC3)c1)CC(=O)N2 [Vesatolimod, reference compound] | – | 12 | 12
9 | 10 | CC(C)N1CCc2c3cc(cc2C1)Cn1c(=O)[nH]c2c(N)nc(nc21)OCCCCC3 [Compound I-35] | 251 | 2767 | 2776
10 | 31 | Nc1nc2nc3c1[nH]c(=O)n3Cc1ccc(Oc3ccc(CNC4CC4)cc3)c(c1)C/C=C\CCO2 [Reference 2, reference compound] | 8 | 161 | 558
11 | 10 | Nc1nc2nc3c1[nH]c(=O)n3Cc1cc(c3c(c1)CN(C1CCC1)CC3)CCCCCO2 [Compound I-37] | 428 | 1973 | 2078
